Here are results for 20 compounds from patent US20160130278A1 (TAISHO PHARMACEUTICAL CO., LTD, priority 2013, published 2016).

The test deals with T1, human type 1 glycine transporter (GlyT1) (Homo sapiens, UniProt P48067).
T1 construct: T98G cells (glioma cells) expressing human type 1 glycine transporter (GlyT1) were used
T1 sequence (P48067 1-706): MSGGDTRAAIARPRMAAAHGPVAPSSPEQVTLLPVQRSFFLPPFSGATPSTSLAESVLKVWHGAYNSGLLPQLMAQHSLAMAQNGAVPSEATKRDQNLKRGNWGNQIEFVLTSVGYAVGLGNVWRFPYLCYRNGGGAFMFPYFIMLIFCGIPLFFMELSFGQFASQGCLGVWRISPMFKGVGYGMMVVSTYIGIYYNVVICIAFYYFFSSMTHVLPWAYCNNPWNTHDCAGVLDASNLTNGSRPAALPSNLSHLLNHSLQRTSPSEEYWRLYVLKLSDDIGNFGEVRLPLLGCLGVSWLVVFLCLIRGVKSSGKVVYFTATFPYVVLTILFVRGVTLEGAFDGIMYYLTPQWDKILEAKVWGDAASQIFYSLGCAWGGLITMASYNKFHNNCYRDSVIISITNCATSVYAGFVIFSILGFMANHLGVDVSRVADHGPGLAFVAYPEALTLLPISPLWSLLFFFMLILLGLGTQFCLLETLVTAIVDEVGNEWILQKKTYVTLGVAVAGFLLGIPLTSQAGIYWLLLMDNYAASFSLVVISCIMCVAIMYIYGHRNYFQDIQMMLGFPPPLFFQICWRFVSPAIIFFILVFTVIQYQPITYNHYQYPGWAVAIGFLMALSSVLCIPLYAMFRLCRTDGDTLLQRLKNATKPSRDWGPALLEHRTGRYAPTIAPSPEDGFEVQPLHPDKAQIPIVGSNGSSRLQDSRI
In words: Glycine uptake inhibition experiment ([3H]glycine uptake). In kind it is cell-based. The settings on record: GlyT1. A digest of the protocol:
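T98G glioma cells expressing human GlyT1 were pretreated 10 min with compound in HEPES buffer pH 7.4 (0.2% BSA), then incubated with compound plus 250 nM final [3H]glycine for 15 min at room temperature. Intracellular radioactivity was counted after NaOH lysis; 10 μM ALX5407 defined non-specific uptake. IC50 came from 10^−9–10^−5 M curves.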

Usually IC50 stands for the concentration that inhibits the measured activity by half. For `O=C(NC(c1cnccc1Cl)[C@]1(O)CC[C@@H](F)CC1)c1nccc(C(F)(F)F)c1Cl` (single isomer, unassigned) [Compound 308, 3-chloro-N-[(4-chloropyridin-3-yl)(cis-4-fluoro-1-hydroxycyclohexyl)methyl]-4-(trifluoromethyl)pyridine-2-carboxamide], it took 380 nM to reach half-maximal inhibition (IC50).
The same measure for `O=C(NC(c1cccc(Cl)n1)[C@]1(O)CC[C@@H](F)CC1)c1cc(C(F)(F)F)ncc1Cl` (single isomer, unassigned) [Compound 309, 5-chloro-N-[(6-chloropyridin-2-yl)(cis-4-fluoro-1-hydroxycyclohexyl)methyl]-2-(trifluoromethyl)pyridine-4-carboxamide]: 550 nM.
The same measure for `O=C(NC(c1cccc(Cl)n1)[C@]1(O)CC[C@@H](F)CC1)c1nccc2ccccc12` (single isomer, unassigned) [Compound 310, N-[(6-chloropyridin-2-yl)(cis-4-fluoro-1-hydroxycyclohexyl)methyl]isoquinoline-1-carboxamide]: 550 nM; for `O=C(NC(c1cccc(Cl)n1)C1(O)CCC(F)(F)CC1)c1nccc(C(F)(F)F)c1Cl` (single isomer, unassigned) [Compound 311, 3-chloro-N-[(6-chloropyridin-2-yl)(4,4-difluoro-1-hydroxycyclohexyl)methyl]-4-(trifluoromethyl)pyridine-2-carboxamide]: 77 nM; for `O=C(NC(c1cccc(F)c1Cl)[C@]1(O)CC[C@@H](F)CC1)c1cccc(Cl)c1C(F)(F)F` (single isomer, unassigned) [Compound 312, 3-chloro-N-[(2-chloro-3-fluorophenyl)(cis-4-fluoro-1-hydroxycyclohexyl)methyl]-2-(trifluoromethyl)benzamide]: 890 nM.
Then `O=C(NC(c1cccc(F)c1Cl)[C@]1(O)CC[C@@H](F)CC1)c1ccc(Cl)cc1C(F)(F)F` (single isomer, unassigned) [Compound 313, 4-chloro-N-[(2-chloro-3-fluorophenyl)(cis-4-fluoro-1-hydroxycyclohexyl)methyl]-2-(trifluoromethyl)benzamide], with 6400 nM.
Compound `O=C(NC(c1cccc(F)c1Cl)[C@]1(O)CC[C@@H](F)CC1)c1cc(Cl)ccc1C(F)(F)F` (single isomer, unassigned) [Compound 314, 5-chloro-N-[(2-chloro-3-fluorophenyl)(cis-4-fluoro-1-hydroxycyclohexyl)methyl]-2-(trifluoromethyl)benzamide] yielded an IC50 of 420 nM.
Then `Cc1ccc(C(F)(F)F)c(C(=O)NC(c2cccc(F)c2Cl)[C@]2(O)CC[C@@H](F)CC2)n1` (single isomer, unassigned) [Compound 315, N-[(2-chloro-3-fluorophenyl)(cis-4-fluoro-1-hydroxycyclohexyl)methyl]-6-methyl-3-(trifluoromethyl)pyridine-2-carboxamide], with 820 nM; and `O=C(NC(c1cccc(F)c1Cl)[C@]1(O)CC[C@@H](F)CC1)c1ncc(Cl)cc1C(F)(F)F` (single isomer, unassigned) [Compound 316, 5-chloro-N-[(2-chloro-3-fluorophenyl)(cis-4-fluoro-1-hydroxycyclohexyl)methyl]-3-(trifluoromethyl)pyridine-2-carboxamide], with 5800 nM.
The same measure for `O=C(NC(c1cccc(F)c1Cl)[C@]1(O)CC[C@@H](F)CC1)c1cc(C(F)(F)F)cnc1Cl` (single isomer, unassigned) [Compound 317, 2-chloro-N-[(2-chloro-3-fluorophenyl)(cis-4-fluoro-1-hydroxycyclohexyl)methyl]-5-(trifluoromethyl)pyridine-3-carboxamide]: 150 nM.
Consider `O=C(NC(c1ncccc1Cl)C1(O)CCC(F)(F)CC1)c1nccc(C(F)(F)F)c1Cl` (single isomer, unassigned) [Compound 318, 3-chloro-N-[(3-chloropyridin-2-yl)(4,4-difluoro-1-hydroxycyclohexyl)methyl]-4-(trifluoromethyl)pyridine-2-carboxamide], for which the half-maximal inhibitory concentration (IC50) was found to be 240 nM.
The compound `O=C(NC(c1ncccc1Cl)C1(O)CCC(F)(F)CC1)c1nccc(C(F)(F)F)c1Cl` (single isomer, unassigned) [Compound 319, 3-chloro-N-[(3-chloropyridin-2-yl)(4,4-difluoro-1-hydroxycyclohexyl)methyl]-4-(trifluoromethyl)pyridine-2-carboxamide] yielded a half-maximal inhibitory concentration (IC50) of 1800 nM. Against the preceding compound, the IC50 is about 7.5-fold higher.
Then `O=C(NC(c1cccc(F)c1Cl)[C@]1(O)CC[C@@H](F)CC1)c1ncc(C(F)(F)F)cc1Cl` (single isomer, unassigned) [Compound 320, 3-chloro-N-[(2-chloro-3-fluorophenyl)(cis-4-fluoro-1-hydroxycyclohexyl)methyl]-5-(trifluoromethyl)pyridine-2-carboxamide], with 1000 nM; and `O=C(NC(c1cccnc1Cl)[C@]1(O)CC[C@@H](F)CC1)c1ccnc(C(F)(F)F)c1Cl` (single isomer, unassigned) [Compound 321, 3-chloro-N-[(2-chloropyridin-3-yl)(cis-4-fluoro-1-hydroxycyclohexyl)methyl]-2-(trifluoromethyl)pyridine-4-carboxamide], with 590 nM.
Then `O=C(NC(c1cccnc1Cl)[C@]1(O)CC[C@@H](F)CC1)c1cccc(C(F)(F)F)c1Cl` (single isomer, unassigned) [Compound 322, 2-chloro-N-[(2-chloropyridin-3-yl)(cis-4-fluoro-1-hydroxycyclohexyl)methyl]-3-(trifluoromethyl)benzamide], with 350 nM.
`O=C(NC(c1cccnc1Cl)[C@]1(O)CC[C@@H](F)CC1)c1cc(C(F)(F)F)ncc1Cl` (single isomer, unassigned) [Compound 323, 5-chloro-N-[(2-chloropyridin-3-yl)(cis-4-fluoro-1-hydroxycyclohexyl)methyl]-2-(trifluoromethyl)pyridine-4-carboxamide]: half-maximal inhibition (IC50) was put at 200 nM.
In turn, `O=C(NC(c1cccnc1Cl)[C@]1(O)CC[C@@H](F)CC1)c1nccc(C(F)F)c1Cl` (single isomer, unassigned) [Compound 324, 3-chloro-N-[(2-chloropyridin-3-yl)(cis-4-fluoro-1-hydroxycyclohexyl)methyl]-4-(difluoromethyl)pyridine-2-carboxamide] yielded an IC50 of 1200 nM.
On to `O=C(NC(c1cccnc1Cl)[C@]1(O)CC[C@@H](F)CC1)c1cc(C(F)(F)F)ccc1Cl` (single isomer, unassigned) [Compound 325, 2-chloro-N-[(2-chloropyridin-3-yl)(cis-4-fluoro-1-hydroxycyclohexyl)methyl]-5-(trifluoromethyl)benzamide], for which 430 nM corresponded to half-maximal inhibition (IC50).
Then `O=C(NC(c1cccnc1Cl)[C@]1(O)CC[C@@H](F)CC1)c1nccc2ccccc12` (single isomer, unassigned) [Compound 326, N-[(2-chloropyridin-3-yl)(cis-4-fluoro-1-hydroxycyclohexyl)methyl]isoquinoline-1-carboxamide], with 1100 nM; and `O=C(NC(c1cccc(Cl)n1)[C@]1(O)CC[C@@H](F)CC1)c1cccc(C(F)(F)F)c1Cl` (single isomer, unassigned) [Compound 327], with 81 nM.
